The source of these data is patent publication US20240398849A1, “METHODS FOR THE TREATMENT OF […] WITH CYCLODEXTRINS” (BEREN THERAPEUTICS P.B.C., priority 2022, published 2024).

For data set [1], the system named is LDL receptor deficient (LDLR−/−) mice. The experiment in a line: Serum triglyceride levels in LDLR−/− mouse model after 2 g/kg HPBCD. It is filed as in vivo. An excerpt: LDL receptor deficient (LDLR^−/−) mice were divided into 6 Groups. Prior to the administration of 2 g/kg of HPBCD, Group 1 was fed with normal chow diet (NC) for 5 weeks and Group 2-Group 6 were fed with high-fat (42%), high-cholesterol (1.2%) Western diet (WD) for various durations up to 9 weeks. Experimental scheme and diet schedule is described in FIG. 1A. Mice of Group 1 were further categorized into 3 sub-Groups (e.g., Group 1.1, Group 1.2, and Group 1.3) according to the administration of HPBCD as shown in FIG. 1B. Blood samples were taken from the mouse models, after 5 weeks of feeding and at a certain period of time (e.g., 1 week, 2 weeks, 3 weeks, 4 weeks after 2 g/kg HPBCD treatment), for measurement of triglyceride levels in each model Group. […] (FIG. 2A).

Data set [2] concerns volunteers. The experiment in a line: Triglyceride levels in volunteers after a single intravenous dose of HPBCD (FIG. 3A). It is filed as in vivo, humans. How it is done:
Twenty-nine volunteers were divided into five groups. Each group was administered an intravenous dose of 50 mg/kg, 250 mg/kg, 500 mg/kg, 1000 mg/kg or 1500 mg/kg of HPBCD as shown in FIG. 3A. Blood samples were taken immediately prior to injection to establish a baseline triglyceride concentration, and at 24 hours (D2) and 48 hours (D3) post injection for measurement of triglyceride levels. […] Overall, triglyceride levels of participants decreased, particularly evident in participants with higher baseline triglyceride concentrations.

Data set [3] concerns volunteers. The experiment in a line: Separate placebo-controlled study: change in triglyceride levels from baseline in volunteers (FIG. 3B-3D). Format: in vivo, humans. Conditions: intravenous 500, 1000 or 1500 mg/kg. On the procedure: In a separate study, volunteers were divided into four groups. Each group was administered an intravenous dose of placebo or an intravenous dose of 500 mg/kg, 1000 mg/kg or 1500 mg/kg of HPBCD as shown in FIG. 3B. Blood samples were taken immediately prior to injection to establish a baseline triglyceride concentration, and at 24 hours (left bar) and 48 hours (right bar) post injection. Triglyceride levels are presented as the median average percentage change from baseline. […] The data in FIG. 3B were divided into two groups for further analysis. Group 1 consisted of the portion of the cohort which had baseline triglyceride levels greater than 100 mg/dL. Group 2 had baseline triglyceride levels less than or equal to 100 mg/dL. The average percentage change of triglyceride levels from baseline of Group 1 and Group 2 is shown in FIG. 3C and FIG. 3D respectively. […] This is consistent with the marked reduction (˜30%) in triglyceride levels observed for the one participant in FIG. 3A with a baseline triglyceride level of approximately 425 mg/dL.

As to `CC(O)COC[C@H]1O[C@@H]2O[C@H]3[C@H](O)[C@@H](O)[C@@H](O[C@H]4[C@H](O)[C@@H](O)[C@@H](O[C@H]5[C@H](O)[C@@H](O)[C@@H](O[C@H]6[C@H](O)[C@@H](O)[C@@H](O[C@H]7[C@H](O)[C@@H](O)[C@@H](O[C@H]8[C@H](O)[C@@H](O)[C@@H](O[C@H]1[C@H](O)[C@H]2O)O[C@@H]8COCC(C)O)O[C@@H]7COCC(C)O)O[C@@H]6COCC(C)O)O[C@@H]5COCC(C)O)O[C@@H]4COCC(C)O)O[C@@H]3COCC(C)O` (stereo partly drawn) [HPBCD, 2-hydroxypropyl-beta-cyclodextrin], in data set [1] (Western diet (WD), blood sampled 1-4 weeks after treatment, FIG. 2A), the “triglyceride levels of WD-fed mice after the administration of HPBCD” value is reported as “decreased over time”. Besides, the “triglyceride level of NC-fed mice after the administration of HPBCD” value in data set [1] (normal chow diet (NC), FIG. 2B) is reported as “decreased from 24 hours after the administration”. Moreover, in the data set on volunteers [2] (one participant in FIG. 3A with baseline triglyceride level of approximately 425 mg/dL), the “reduction in triglyceride levels” value was roughly 30%. Moreover, in the data set with volunteers [2] (volunteers, intravenous 50, 250, 500, 1000 or 1500 mg/kg, 24 h and 48 h post injection, any tested dose, FIG. 3A), the “triglyceride levels following administration (safety)” value is “did not significantly increase”. Also, the “triglyceride levels of participants overall” value with volunteers [2] (volunteers, intravenous 50-1500 mg/kg, 24 h and 48 h post injection, particularly evident with higher baseline triglyceride) is reported as “decreased”. Further, the “reduction in triglyceride levels, Group 1 (baseline >100 mg/dL) versus Group 2 (baseline ≤100 mg/dL)” value in the data set with volunteers [3] (24 h and 48 h, FIG. 3C and 3D) was “greater reduction in triglyceride levels was observed in participants in Group 1 than those in Group 2”. For the same molecule, the “triglyceride levels, median average percentage change from baseline” value with volunteers [3] (24 h and 48 h post injection, any tested dose, FIG. 3B) is on record as “did not increase”.
